Earlier results on two compounds are cited in patent publication EP2959895A1, “Compositions comprising Phenylalanine and Leucine for use in the diagnosis and treatment of neurological disorders and symptoms thereof” (Rheinisch-Westfälische Technische Hochschule Aachen (RWTH), priority 2014, dated 2015).

This data set concerns the target T1, L-1 transporter (Rattus norvegicus, UniProt Q63016).
T1 construct: blood brain barrier (BBB) transport for fourteen amino acids in anesthetized rats; host or cells: Blood-brain barrier of anesthetized rats, in vivo
Particulars: blood brain barrier (BBB) transport, anesthetized rats; Pardridge and Oldendorf 1975.

T1 sequence (Q63016 whole entry): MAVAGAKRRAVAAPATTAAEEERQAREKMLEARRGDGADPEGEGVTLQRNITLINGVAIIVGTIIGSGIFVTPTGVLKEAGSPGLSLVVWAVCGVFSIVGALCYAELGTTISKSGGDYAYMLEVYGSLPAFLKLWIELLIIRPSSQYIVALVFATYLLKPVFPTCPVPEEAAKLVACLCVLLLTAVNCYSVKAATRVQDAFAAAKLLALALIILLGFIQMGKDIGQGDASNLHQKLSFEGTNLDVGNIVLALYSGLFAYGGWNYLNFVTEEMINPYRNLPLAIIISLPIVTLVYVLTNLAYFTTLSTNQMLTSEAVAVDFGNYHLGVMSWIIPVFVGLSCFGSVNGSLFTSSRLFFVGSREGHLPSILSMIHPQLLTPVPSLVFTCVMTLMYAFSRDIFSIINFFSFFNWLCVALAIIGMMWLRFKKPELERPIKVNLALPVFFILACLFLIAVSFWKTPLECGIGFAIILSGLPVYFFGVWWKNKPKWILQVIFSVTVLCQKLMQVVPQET
T1 sequence (Q794F9 whole entry partner): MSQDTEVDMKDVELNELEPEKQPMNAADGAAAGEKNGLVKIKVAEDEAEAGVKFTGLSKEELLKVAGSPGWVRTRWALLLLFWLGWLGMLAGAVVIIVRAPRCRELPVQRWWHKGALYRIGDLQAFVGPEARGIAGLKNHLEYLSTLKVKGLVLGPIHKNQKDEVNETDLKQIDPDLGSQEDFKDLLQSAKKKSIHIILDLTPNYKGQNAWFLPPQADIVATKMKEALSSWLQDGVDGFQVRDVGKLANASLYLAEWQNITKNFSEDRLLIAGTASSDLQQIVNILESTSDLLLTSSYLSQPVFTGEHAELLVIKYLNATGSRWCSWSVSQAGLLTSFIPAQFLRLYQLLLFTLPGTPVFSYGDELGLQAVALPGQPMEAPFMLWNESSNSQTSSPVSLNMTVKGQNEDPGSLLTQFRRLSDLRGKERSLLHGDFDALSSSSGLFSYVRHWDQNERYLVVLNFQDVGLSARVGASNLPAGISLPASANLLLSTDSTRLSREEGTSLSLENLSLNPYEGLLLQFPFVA

As for `CC(C)C[C@H](N)C(=O)O` [leucine], the Km was 150 µM.

Take `N[C@@H](Cc1ccccc1)C(=O)O` [phenylalanine]: the Km was 120 µM.
